Results reported in publication PMC9047694, “Phenolic Compounds From the Stems and Leaves of Berchemia lineata (L.) DC” (Frontiers in Chemistry, 2022).

Target: α-glucosidase (Saccharomyces cerevisiae, UniProt P53341)
Experiment: α-Glucosidase inhibitory assay
Type: biochemical
Conditions: for inhibitory activities against α-glucosidase (in words): conclusion statement; for IC50: 4-nitrophenyl-α-D-glucopyranoside substrate, 37°C, 30 min, absorbance 405 nm, read-out: IC50 (μM), α-glucosidase inhibitory activities
Procedure: IC50 values were calculated from the graph of inhibition percentage against the logarithm of the concentrations of compounds.

Sequence of α-glucosidase (P53341 whole entry): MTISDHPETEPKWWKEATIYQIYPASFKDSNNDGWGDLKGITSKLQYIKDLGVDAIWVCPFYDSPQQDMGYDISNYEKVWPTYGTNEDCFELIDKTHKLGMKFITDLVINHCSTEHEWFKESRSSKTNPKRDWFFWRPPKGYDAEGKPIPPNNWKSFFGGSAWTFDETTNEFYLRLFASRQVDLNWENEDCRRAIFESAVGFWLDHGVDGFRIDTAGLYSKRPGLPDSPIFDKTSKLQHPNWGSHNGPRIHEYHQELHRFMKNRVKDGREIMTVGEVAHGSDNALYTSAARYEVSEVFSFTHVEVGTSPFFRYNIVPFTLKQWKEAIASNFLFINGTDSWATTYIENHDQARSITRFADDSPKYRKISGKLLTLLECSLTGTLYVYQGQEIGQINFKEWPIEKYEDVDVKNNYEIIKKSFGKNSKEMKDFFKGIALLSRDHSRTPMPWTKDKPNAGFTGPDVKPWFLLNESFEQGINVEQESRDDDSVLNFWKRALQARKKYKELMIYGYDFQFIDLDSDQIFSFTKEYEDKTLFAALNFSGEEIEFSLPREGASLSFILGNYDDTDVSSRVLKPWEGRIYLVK

Compound	inhibitory activities against α-glucosidase (in words)	IC50 [µM]
O=c1c(O)c(-c2ccc(O)c(O)c2)oc2cc(O)cc(O)c12 [Compound 14, quercetin]	moderate inhibitory activities	–
vittarin-B [Compound 9]	moderate inhibitory activities	22.5
COc1c(O)c(O)cc2c1C(=O)c1c(O)cc(C)cc1C2=O [Compound 18, 2-hydroxyemodin 1-methyl ether]	–	> 50
COc1cc(O[C@@H]2O[C@H](CO)[C@@H](O)[C@H](O)[C@H]2O)c2c(O)c3c(=O)cc(C)oc3cc2c1 [Compound 11, rubrofusarin-6-O-β-D-glucopyranoside]	moderate inhibitory activities	28
O=c1c(O)c(-c2ccc(O)cc2)oc2cc(O)cc(O)c12 [Compound 15, kaempferol]	moderate inhibitory activities	–
O=C1c2c(O)cc(O)cc2O[C@H](c2ccc(O)cc2)[C@H]1O [Compound 17, dihydrokaempferol]	moderate inhibitory activities	–
COc1cc(O[C@@H]2O[C@H](CO[C@@H]3O[C@@H](C)[C@H](O)[C@@H](O)[C@H]3O)[C@@H](O)[C@H](O)[C@H]2O)c2c(O)c3c(=O)cc(C)oc3cc2c1 [Compound 12, rubrofusarin-6-O-α-L-rhamnosyl-(1→6)-O-β-D-glucopyranside]	–	> 50
demethylflavasperone-10-O-β-D-glucopyranoside [Compound 10]	–	> 50
